Test results as given in PMC9321718 (Pharmaceuticals, 2022).
≈ marks a conversion by molar mass, not a printed value. Where “and” joins values, the source holds several entries; their conditions need not be identical. Equal entries are not always repeated. Where two headings read alike, the source gives them in different places.

What was measured:
[1] = Formation of inclusion complexes with MCD (UV spectroscopy, Hill linearization); assay type: physicochemical; conditions: for EE, % / LC, % / n: MCD; for EE, % / LC, %: C(MCD) = 0.01 M, pH 6.2, 22 °C; for n: Xaq + n MCDaq ⇌ X·nMCDaq, 5 mM sodium phosphate buffer pH 6.2, 22 °C
Experimental: To optimize the system composition, similar experiments were carried out on the formation of EG and apiol inclusion complexes with HPCD (Figure S1). […] According to these changes, the dissociation constants of the EG–HPCD and apiol–HPCD complexes (Figure S2) were calculated by Hill’s equation (Table 1). […] The physicochemical parameters of the interaction of APAB and terpenoids (X) with CD were studied by determining the concentration of substances in the aqueous fraction ([APAB] + [APAB-MCD]) according to the calibration dependence (Figure 1C) for systems with a constant amount of the essential oil component X and the concentration gradient MCD (Table 1). Theta (θ) is a fraction of the bound substance X:θ = [X-MCD]/([X-MCD] + [X]) and was calculated based on the dependence of the absorption intensity X on the MCD concentration in the system in the form of a sigmoidal Hill curve with subsequent linearization (Section 3, Section 3.3 and Section 3.4).
The molar excess of CD varied from 0.04 to 10). Further, the complexes were incubated for 1 h at 37 °C and then centrifuged ([…], 15 min, Eppendorf tubes) to separate the insoluble fractions. Complexes were studied by UV and FTIR spectroscopy.
UV spectra of solutions (point 3.3.1) were recorded on the AmerSham Biosciences UltraSpec 2100 pro device (USA) three times in the range of 200–400 nm in a quartz cell Hellma 100–QS with an optical path of 1 cm. Background spectrum (5 mM sodium phosphate buffer (pH 6.2) with 50% EtOH) was subtracted as a blank.
(1) Calculation of the dissociation constants X–MCD and X–HPCD, where X is a “guest” compound, considering the equilibrium: Xaq + n MCDaq ↔ X·nMCDaq, where Kd = [MCDaq]^n · [Xaq]/[X·nMCDaq].
First, fitting of the curves of change of the analytical signal ξ (peak intensity or peak position) versus concentration of the MCD or HPCD or was carried out using the Hill equations: (1) ξ = ξ∞ · [MCD]^n/([MCD]^n + K^n), where ξ∞—horizontal asymptote; (2) ξ = ξ0 + (ξ∞–ξ0) · [MCD]^n/([MCD]^n + K^n). Second, calculation n and Kd values by Hill’s linearization in n-binding site model: lg (θ/(1 – θ)) = n · lg [L] – lg Kd, where θ = |(ξ – ξ0)/(ξ∞ − ξ0)|is a fraction of the bound substance. N in Hill equation—number of drug molecules per CD torus.
Calculations for the following items are performed when [MCD] = 0.01 M.

E. coli (NCIB 12210) [2] = assay: Agar diffusion test, MIC; assay type: cell-based, Escherichia coli; conditions: for antibacterial activity of CD complex: up to 3–5 mg/mL concentration; for MIC: LB pH 7.2, 37 °C, 20 h
Experimental: (§1) The strains used in this study were Escherichia coli (NCIB 12210) and Bacillus subtilis (NCIB 8054) from National Resource Center All-Russian collection of industrial microorganisms SIC “Kurchatov Institute”). The culture was cultivated for 18–20 h at 37 °C to CFU ≈ 5 × 10^6 – 8 × 10^6 (determined by A600) in liquid nutrient medium Luria–Bertani (pH 7.2): E. coli—without stirring, B. subtilis—with stirring 180 rpm.
(§2) The study of the antibacterial effect of Lev and adjuvants was carried out by (a) agar diffusion test and (b) broth micro-dilution method. (a) A measured 500 µL of 100-fold culture dilution was evenly distributed over a solid nutrient medium (LB, pH 7.2) on a Petri dish. After 20 min, agar disks with a diameter of 9 mm were removed from the cups and 50 µL of the test samples were placed in the formed wells at the required concentration in a sterile PBS buffer (see Section 3.3 (2)). After 30 min, Petri dishes were placed in a 37 °C thermostat. After 24 h, the diameters of the growth inhibition zones were measured. Minimum inhibitory concentrations (MICs) are determined as the infimum of multiple concentrations of an antimicrobial that inhibits the visible growth of a microorganism after overnight incubation. (b) According to the standard broth micro-dilution method, 200 µL of the overnight culture (5 × 10^6 CFU) was placed into a 96 micro-titer plate wells. Then 50 µL of tested samples was added. The range of tested Lev concentration was 4–200 ng/mL, adjuvants concentration was in the range of 0.008–2 mg/mL. Optical density measurements at 600 nm were taken at various times (0, 3, and 18 h) to determine the number of cells. The dependence of CFU (determined by A600) on the concentration of Lev, APAB or terpenoid (briefly X) was approximated according to the Boltzmann equation (Origin software): CFU = (control CFU)/(1 + exp(([X] − MIC50)/constant value)). MIC50 and MIC90 are defined as concentrations at which the inhibition of bacterial growth by 50 and 90% is noticeable, respectively. In other words, the concentration at which the ordinate value (CFU) is equal to 50 or 10% of the control sample minus the background.

B. subtilis (NCIB 8054) [3] = assay: Agar diffusion test, MIC; assay type: cell-based, Bacillus subtilis; conditions: B. subtilis; for antibacterial activity of CD complex: up to 3–5 mg/mL concentration; for MIC: agar diffusion test, LB pH 7.2, 37 °C, 20 h
Experimental: as §1, §2

E. coli = assay: Synergy of adjuvant-MCD with Lev-MCD, growth inhibition zones in agar; assay type: cell-based, Escherichia coli; conditions: E. coli; for D, diameter of bacterial inhibition zone surrounding Lev–MCD with APAB-MCD / ϕLev = (D/DLev)^2 / FICI: CLev 0.1 μg/mL; for D, diameter of bacterial inhibition zone surrounding Lev–MCD with APAB-MCD: Lev-MCD + X-MCD (1:2), ±0.5; for ϕLev = (D/DLev)^2: ±0.1; for FICI: ±15%
Experimental: We obtained complex formulations containing adjuvants-MCD and Lev-MCD. These complexes were referred to as enhanced Lev. The synergy effect was studied at a constant concentration of Lev and a variable concentration of an enhancer. […] Based on the D/DLev ratio, the effectiveness of cooperative antibacterial action (ϕ) of the adjuvant and Lev was calculated. The fractional inhibitory concentration (FIC) parameter was introduced: at a fixed Lev concentration, the FIC of adjuvant corresponds to the minimum fractional adjuvant concentration at which the antibacterial effect was still manifest (MICadjuvant in the presence of Lev). The fractional inhibitory concentration index (FICI) characterizes the ratio of the active Lev and adjuvant concentrations to the MIC values of these substances individually: FICI=[Lev]/MIC(Lev)[…][adjuvant]/MIC(adjuvant) (see Section 3).
The FICI was interpreted as: synergism (<0.35), additivity (0.35–0.75), indifference (0.75–1.4), or antagonism (>1.4). FICI is designed to determine the type of Lev interaction with adjuvants.
as §2, with “After 24 h, the diameters of the growth inhibition zones were measured.” left out, “Optical density measurements at 600 nm were taken at various times (0, 3, and 18 h) to determine the number of cells.” left out, “MIC50 and MIC90 are defined as concentrations at which the inhibition of bacterial growth by 50 and 90% is noticeable, respectively.” left out
The FICI was interpreted as: synergism (<0.35), additivity (0.35–0.75), indifference (0.76–1.4), or antagonism (>1.4). The essence of this expression is to calculate the average change in the effective concentration compared to MIC. Note that the most important parameter corresponds to a decrease in MIC of Lev. However, FICI is designed to determine the type of interaction Lev with adjuvants.

[4] = Solubility of X in water and in the presence of MCD/HPCD (UV absorbance); conditions: 22 °C, pH 6.2, water
Experimental: (§3) (3) Solubility of X in water C0 = [Xaq] = A/(ε · l) was determined by UV absorbance after centrifugation of samples (10 min, 10,000× g). l = 1 cm. ε—molar absorbance coefficient (Figure 1C).

physchem = conditions: 22 °C, pH 6.2, water
Experimental: as §3

E. coli (NCIB 12210) [5] = assay: Broth micro-dilution method, MIC50/MIC90; assay type: cell-based, Escherichia coli
Experimental: as §1
as §2, with “In other words, the concentration at which the ordinate value (CFU) is equal to 50 or 10% of the control sample minus the background.” left out

B. subtilis (NCIB 8054) [6] = assay: Broth micro-dilution method, MIC50/MIC90; assay type: cell-based; conditions: Bacillus subtilis, NCIB8054
Experimental: as §1
The study of the antibacterial effect of Lev and adjuvants was carried out by (a) agar diffusion test and (b) broth micro-dilution method. (a) A measured 500 µL of 100-fold culture dilution was evenly distributed over a solid nutrient medium (LB, pH 7.2) on a Petri dish. […] After 24 h, the diameters of the growth inhibition zones were measured. Minimum inhibitory concentrations (MICs) are determined as the infimum of multiple concentrations of an antimicrobial that inhibits the visible growth of a microorganism after overnight incubation. […] The dependence of CFU (determined by A600) on the concentration of Lev, APAB or terpenoid (briefly X) was approximated according to the Boltzmann equation (Origin software): CFU = (control CFU)/(1 + exp(([X] − MIC50)/constant value)). […]

[7] = MCD, cited from earlier work; for EE, %: C(MCD) = 0.01 M
[8] = HPCD, cited from earlier work
[9] = Escherichia coli, NCIB12210, broth micro-dilution

Row | SMILES | EE, % [1] | LC, % [1] | n [1] | antibacterial activity of CD complex (E. coli (NCIB 12210) [2]) | antibacterial activity of CD complex (B. subtilis (NCIB 8054) [3]) | decrease of MICLev in the presence of adjuvant (E. coli) | D, diameter of bacterial inhibition zone surrounding Lev–MCD with APAB-MCD (E. coli) | ϕLev = (D/DLev)^2 (E. coli) | FICI (E. coli) | solubility (physchem) | other results
1 | C=CCc1cc(OC)c(OC)c(OC)c1OC [Allyltetramethoxybenzene] | 45 ± 4% | 11 ± 1% | 1.74 ± 0.11 | inactive | inactive | 1.25–1.5 times | 12 mm | 1.1 | 0.50 | – | solubility [4]: 160 ± 20 µM
2 | C=CCc1cc2c(c(OC)c1OC)OCO2 [Dillapiol] | 56 ± 10% | 13 ± 1% | 1.3 ± 0.2 | – | – | 1.25–1.5 times | 13.75 mm | 1.3 | 0.04 | 240 ± 50 µM (≈ 53.3 µg/mL) | –
3 | C[C@H]1COc2c(N3CCN(C)CC3)c(F)cc3c(=O)c(C(=O)O)cn1c23 [Levofloxacin] | – | – | – | – | – | – | – | – | – | – | MIC (E. coli (NCIB 12210) [2]; Escherichia coli, NCIB12210, agar diffusion test, read-out: MIC): 0.1 µg/mL (≈ 0.277 µM); MIC (E. coli (NCIB 12210) [2]; agar diffusion test, listed as Lev): 0.10 µg/mL and 0.10 ± 0.01 µg/mL; MIC50 (E. coli (NCIB 12210) [5]; [9]): 0.01 ± 0.002 µg/mL (≈ 0.0277 µM); MIC90 (E. coli (NCIB 12210) [5]; [9]): 0.025 ± 0.004 µg/mL (≈ 0.0692 µM); improvement of the effect of Lev by MCD (E. coli (NCIB 12210) [5]; broth micro-dilution test): 30%; MIC (B. subtilis (NCIB 8054) [3]; listed as Lev): 0.45 ± 0.05 µg/mL (≈ 1.25 µM); MIC (B. subtilis (NCIB 8054) [3]; Bacillus subtilis, NCIB8054, read-out: MIC): 0.45 µg/mL (≈ 1.25 µM); MIC50 (B. subtilis (NCIB 8054) [6]): 0.03 ± 0.01 µg/mL (≈ 0.083 µM); MIC90 (B. subtilis (NCIB 8054) [6]): 0.08 ± 0.02 µg/mL (≈ 0.221 µM); EE, % [7]: 99 ± 12%; EE, % ([7]; listed as Lev): more than 90%; LC, % [7]: 28.3 ± 0.4%; EE, % ([8]; 0.01 M): 91 ± 15%; LC, % [8]: 24.1 ± 0.5%
4 | C=CC(C)(O)CCC=C(C)C (centres unmarked) [Linalool] | 80 ± 7% | 10 ± 1% | 1.2 ± 0.2 | inactive | inactive | – | – | – | – | 300 ± 50 µM (≈ 46.3 µg/mL) | –
5 | C=CCc1cc(OC)c2c(c1)OCO2 [Myristicin] | 99 ± 5% | 22 ± 2% | 0.67 ± 0.06 | inactive | inactive | 1.25–1.5 times | 13.25 mm | 1.2 | 0.04 | 30 ± 7 µM (≈ 5.77 µg/mL) | molar ratio APAB:CD of inclusion complexes [1]: 2 to 1; EE, % ([1]; listed as myristicin): more than 90%
